Reference: patent publication US20250388589A1, “TRICYCLIC HETEROCYCLIC DERIVATIVES, COMPOSITIONS AND USES THEREOF” (Danatlas Pharmaceuticals Co., Ltd., priority 2022, published 2025)

Key:
[1] = target: hPARG (C-terminal His6-tag) (Homo sapiens (Human), UniProt Q86W56); experiment: PARG Enzymatic Activity Assay (HTRF); type: biochemical; details: hPARG 65 pM final, biotinylated-NAD ribosylated PARP1 8 nM final
In short: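 E. coli-expressed enzyme (65 pM final) preincubated 60 min RT with compounds (10-point 4-fold dilution, duplicate) in 50 mM Tris pH 7.4, 3 mM EDTA, 1 mM DTT, 50 mM KCl, 0.01% Tween 20. Biotinylated-NAD ribosylated PARP1 substrate (8 nM final) reacted 10 min RT; Eu-streptavidin/anti-6HIS-XL665 HTRF read 665/620 nm after 60 min. IC50 from 4-parameter Hill fit.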

[2] = test system: Kuramochi cell line; experiment: Cell Viability Assay (Cell Titer-Glo, 7 days); type: cell-based; details: 168 h, Kuramochi cells, 7 days incubation, read-out: PARG Cell viability (IC50)
In short: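 Kuramochi cells in RPMI with 10% FBS, seeded at 400 cells/well, were treated with a 9-point 3-fold dilution series in duplicate for 7 days at 37 °C, 5% CO2. Viability by CellTiter-Glo luminescence, normalised to DMSO and medium-only controls; IC50 from 4-parameter Hill fit.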

Sequence of hPARG (C-terminal His6-tag) (Q86W56 whole entry): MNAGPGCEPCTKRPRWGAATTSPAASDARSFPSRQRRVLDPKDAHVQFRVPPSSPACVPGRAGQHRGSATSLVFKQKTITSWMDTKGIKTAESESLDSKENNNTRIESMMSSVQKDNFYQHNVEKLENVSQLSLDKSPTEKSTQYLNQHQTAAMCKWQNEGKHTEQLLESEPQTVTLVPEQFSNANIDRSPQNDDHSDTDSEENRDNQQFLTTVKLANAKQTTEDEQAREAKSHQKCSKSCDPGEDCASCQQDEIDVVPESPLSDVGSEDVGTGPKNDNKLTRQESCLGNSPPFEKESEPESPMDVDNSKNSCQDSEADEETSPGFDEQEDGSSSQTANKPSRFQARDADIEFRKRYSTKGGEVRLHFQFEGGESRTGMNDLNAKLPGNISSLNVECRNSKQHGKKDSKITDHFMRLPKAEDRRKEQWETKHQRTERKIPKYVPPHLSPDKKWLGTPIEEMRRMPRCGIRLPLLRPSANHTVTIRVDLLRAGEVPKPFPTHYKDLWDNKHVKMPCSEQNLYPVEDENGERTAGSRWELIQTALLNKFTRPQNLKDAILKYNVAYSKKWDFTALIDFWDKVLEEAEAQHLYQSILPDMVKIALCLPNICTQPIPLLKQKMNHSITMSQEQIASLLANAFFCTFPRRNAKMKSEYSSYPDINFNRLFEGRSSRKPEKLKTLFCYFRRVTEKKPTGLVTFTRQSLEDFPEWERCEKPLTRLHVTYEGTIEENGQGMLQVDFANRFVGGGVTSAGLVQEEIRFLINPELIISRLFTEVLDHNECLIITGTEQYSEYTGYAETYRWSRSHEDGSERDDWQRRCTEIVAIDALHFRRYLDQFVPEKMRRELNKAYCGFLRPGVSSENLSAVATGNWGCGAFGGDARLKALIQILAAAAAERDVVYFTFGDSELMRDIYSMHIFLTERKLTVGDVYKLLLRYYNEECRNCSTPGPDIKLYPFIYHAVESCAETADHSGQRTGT

Row | Compound | IC50 [1] [nM] | IC50 [2] [nM]
1 | C[C@@H]1CN(c2ncnc3c2c2ccc(S(=O)(=O)NC4(C#N)CC4)cc2n3-c2nnc(C(F)F)s2)C[C@H](C)N1C(=O)C1CC1 [Example 29, N-(1-Cyanocyclopropyl)-4-((3S,5R)-4-(cyclopropanecarbonyl)-3,5-dimethylpiperazin-1-yl)-9-(5-(difluoromethyl)-1,3,4-thiadiazol-2-yl)-9H-pyrimido[4,5-b]indole-7-sulfonamide] | < 100 | < 100
2 | CC(C)C(=O)N1CCN(c2ncnc3c2c2ccc(S(=O)(=O)NC4(C#N)CC4)cc2n3-c2nnc(C(F)F)s2)C[C@@H]1CO [Example 154, (R)—N-(1-Cyanocyclopropyl)-9-(5-(difluoromethyl)-1,3,4-thiadiazol-2-yl)-4-(3-(hydroxymethyl)-4-isobutyrylpiperazin-1-yl)-9H-pyrimido[4,5-b]indole-7-sulfonamide] | < 100 | < 100
3 | N#CC1(NS(=O)(=O)c2ccc3c4c(N5CCN6CCOC[C@H]6C5)ncnc4n(-c4nnc(C(F)F)s4)c3c2)CC1 [Example 161, (R)-N-(1-cyanocyclopropyl)-9-(5-(difluoromethyl)-1,3,4-thiadiazol-2-yl)-4-(hexahydropyrazino[2,1-c][1,4]oxazin-8(1H)-yl)-9H-pyrimido[4,5-b]indole-7-sulfonamide] | < 100 | < 100
4 | N#CC1(NS(=O)(=O)c2ccc3c4c(N5CCn6c(nnc6C(F)(F)F)C5)ncnc4n(-c4nnc(C(F)F)s4)c3c2)CC1 [Example 156, N-(1-cyanocyclopropyl)-9-(5-(difluoromethyl)-1,3,4-thiadiazol-2-yl)-4-(3-(trifluoromethyl)-5,6-dihydro-[1,2,4]triazolo[4,3-a]pyrazin-7(8H)-yl)-9H-pyrimido[4,5-b]indole-7-sulfonamide] | < 100 | < 100
5 | N#CC1(NS(=O)(=O)c2ccc3c4c(N5CCN(C(=O)C6CCOCC6)CC5)ncnc4n(-c4nnc(C(F)F)s4)c3c2)CC1 [Example 12, N-(1-Cyanocyclopropyl)-9-(5-(difluoromethyl)-1,3,4-thiadiazol-2-yl)-4-(4-(tetrahydro-2H-pyran-4-carbonyl)piperazin-1-yl)-9H-pyrimido[4,5-b]indole-7-sulfonamide] | < 100 | < 100
6 | N#CC1(NS(=O)(=O)c2ccc3c4c(N5CCC6(CCCO6)CC5)ncnc4n(-c4nnc(C(F)F)s4)c3c2)CC1 [Example 182, N-(1-Cyanocyclopropyl)-9-(5-(difluoromethyl)-1,3,4-thiadiazol-2-yl)-4-(1-oxa-8-azaspiro[4.5]decan-8-yl)-9H-pyrimido[4,5-b]indole-7-sulfonamide] | < 100 | < 100
7 | CN(C)C(=O)N1CC2CN(c3ncnc4c3c3ccc(S(=O)(=O)NC5(C#N)CC5)cc3n4-c3nnc(C(F)F)s3)CC2C1 (stereo not shown) [Example 28, 5-(7-(N-(1-Cyanocyclopropyl)sulfamoyl)-9-(5-(difluoromethyl)-1,3,4-thiadiazol-2-yl)-9H-pyrimido[4,5-b]indol-4-yl)-N,N-dimethylhexahydropyrrolo[3,4-c]pyrrole-2(1H)-carboxamide] | < 100 | 100 to 1000
8 | Cc1ccc(C(=O)N2CCN(c3ncnc4c3c3ccc(S(=O)(=O)NC5(C#N)CC5)cc3n4-c3nnc(C(F)F)s3)CC2)nc1 [Example 35, N-(1-Cyanocyclopropyl)-9-(5-(difluoromethyl)-1,3,4-thiadiazol-2-yl)-4-(4-(5-methylpicolinoyl)piperazin-1-yl)-9H-pyrimido[4,5-b]indole-7-sulfonamide] | < 100 | < 100
9 | N#CC1(NS(=O)(=O)c2ccc3c4c(N5CC6OCCOC6C5)ncnc4n(-c4nnc(C(F)F)s4)c3c2)CC1 (stereo not shown) [Example 165, N-(1-Cyanocyclopropyl)-9-(5-(difluoromethyl)-1,3,4-thiadiazol-2-yl)-4-(hexahydro-6H-[1,4]dioxino[2,3-c]pyrrol-6-yl)-9H-pyrimido[4,5-b]indole-7-sulfonamide] | 100 to 1000 | 100 to 1000
10 | CC(C)OC(=O)N1CCN(c2ncnc3c2c2ccc(S(=O)(=O)NC4(C#N)CC4)cc2n3-c2nnc(C(F)F)s2)CC1 [Example 15, Isopropyl 4-(7-(N-(1-cyanocyclopropyl)sulfamoyl)-9-(5-(difluoromethyl)-1,3,4-thiadiazol-2-yl)-9H-pyrimido[4,5-b]indol-4-yl)piperazine-1-carboxylate] | 100 to 1000 | 100 to 1000
11 | CC1(NS(=O)(=O)c2ccc3c4c(N5CCN(C(=O)C6CC6)CC5)ncnc4n(-c4nnc(C(F)F)s4)c3c2)CC1 [Example 1, 4-(4-(Cyclopropanecarbonyl)piperazin-1-yl)-9-(5-(difluoromethyl)-1,3,4-thiadiazol-2-yl)-N-(1-methylcyclopropyl)-9H-pyrimido[4,5-b]indole-7-sulfonamide] | < 100 | 100 to 1000

Now from value to compound, other results behind:

Row | IC50 [1] [nM] | Compound | IC50 [2] [nM]
12 | < 100 | C[C@@H](N)C(=O)N1CCC(c2ncnc3c2c2ccc(S(=O)(=O)NC4(C#N)CC4)cc2n3-c2nnc(C(F)F)s2)CC1 [Example 127, 4-(1-(D-Alanyl)piperidin-4-yl)-N-(1-cyanocyclopropyl)-9-(5-(difluoromethyl)-1,3,4-thiadiazol-2-yl)-9H-pyrimido[4,5-b]indole-7-sulfonamide] | 100 to 1000
13 | < 100 | C[C@H](O)C(=O)N1CCC(c2ncnc3c2c2ccc(S(=O)(=O)NC4(C#N)CC4)cc2n3-c2nnc(C(F)F)s2)CC1 [Example 106, (S)-N-(1-Cyanocyclopropyl)-9-(5-(difluoromethyl)-1,3,4-thiadiazol-2-yl)-4-(1-(2-hydroxypropanoyl)piperidin-4-yl)-9H-pyrimido[4,5-b]indole-7-sulfonamide] | < 100
14 | < 100 | CO[C@H](C)C(=O)N1CCC(c2ncnc3c2c2ccc(S(=O)(=O)NC4(C#N)CC4)cc2n3-c2nnc(C(F)F)s2)CC1 [Example 109, (R)-N-(1-cyanocyclopropyl)-9-(5-(difluoromethyl)-1,3,4-thiadiazol-2-yl)-4-(1-(2-methoxypropanoyl)piperidin-4-yl)-9H-pyrimido[4,5-b]indole-7-sulfonamide] | < 100
15 | < 100 | CC(C)C(=O)N1CCC(c2ncnc3c2c2cc(F)c(S(=O)(=O)NC4(C#N)CC4)cc2n3-c2nnc(C(F)F)s2)CC1 [Example 90, N-(1-Cyanocyclopropyl)-9-(5-(difluoromethyl)-1,3,4-thiadiazol-2-yl)-6-fluoro-4-(1-isobutyrylpiperidin-4-yl)-9H-pyrimido[4,5-b]indole-7-sulfonamide] | < 100
16 | < 100 | CC(C)(O)C(=O)N1CCC(c2ncnc3c2c2ccc(S(=O)(=O)NC4(C#N)CC4)cc2n3-c2nnc(C(F)F)s2)CC1 [Example 118, N-(1-cyanocyclopropyl)-9-(5-(difluoromethyl)-1,3,4-thiadiazol-2-yl)-4-(1-(2-hydroxy-2-methylpropanoyl)piperidin-4-yl)-9H-pyrimido[4,5-b]indole-7-sulfonamide] | < 100
17 | < 100 | CC(C)(C)OC(=O)N1CCC(c2ncnc3c2c2ccc(S(=O)(=O)NC4(C#N)CC4)cc2n3-c2nnc(C(F)F)s2)CC1 [Example 86, tert-butyl 4-(7-(N-(1-cyanocyclopropyl)sulfamoyl)-9-(5-(difluoromethyl)-1,3,4-thiadiazol-2-yl)-9H-pyrimido[4,5-b]indol-4-yl)piperidine-1-carboxylate] | 100 to 1000
